Results reported in patent US20250154152A1, “INHIBITORS OF NAEGLERIA FOWLERI” (Wisconsin Alumni Research Foundation, priority 2023, published 2025).
Where two headings read alike, the source gives them in different places.

Test system: N. fowleri strain Nf69 (ATCC 30215) trophozoites
Test: Determination of EC50 values against Naegleria fowleri (growth inhibition, CellTiter Glo, 48 h)
Format: cell-based
In short: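 Axenic Nf69 trophozoites in Nelson's complete medium with 10% FBS exposed to compound, initially 20–0.375 μM, for 48 h at 37 °C, 5% CO2. Viability read by CellTiter-Glo luminescence; % growth inhibition versus controls, triplicate averages fitted for EC50, with lower ranges used for very potent compounds.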

[1] = ATCC30215, N. fowleri Nf69 trophozoites, 48 h culture, 37° C., CellTiter Glo luminescence, read-out: EC50 uM against N. fowleri

EC50 [1]	Compound	also measured
0.1 to 1 µM	COc1cc2nc3n(c(=O)c2cc1C#N)CC[C@@H]1[C@@H]3CCCN1CC1COC1 (racemic) [trans-7kk, (±)-(4aR,13bS)-11-methoxy-4-(oxetan-3-ylmethyl)-8-oxo-2,3,4,4a,5,6,8,13b-octahydro-1H-[1,6]naphthyridino[5,6-b]quinazoline-10-carbonitrile]	
> 10 µM	O=c1c2ccccc2nc2n1CC[C@@H]1[C@@H]2CCCN1Cc1ccccc1 (racemic) [trans-5aa, (±)-(4aR,13bS)-4-benzyl-1,2,3,4,4a,5,6,13b-octahydro-8H-[1,6]naphthyridino[5,6-b]quinazolin-8-one]	
	CCCCCCCCCCCCCCCCOP(=O)([O-])OCC[N+](C)(C)C [Miltefosine, miltefosine, reference compound]	EC50 (ATCC30215, positive control, N. fowleri Nf69 trophozoites, 48 h, CellTiter Glo, read-out: N. fowleri EC50): 35.7 ± 9.1 µM
> 10 µM	O=c1c2ccccc2nc2n1CC[C@@H]1[C@H]2CCN1Cc1ccccc1 (racemic) [cis-5ff, (±)-(3aR,12bR)-3-benzyl-2,3,3a,4,5,12b-hexahydropyrrolo[3′,2′:3,4]pyrido[2,1-b]quinazolin-7(1H)-one]	
> 10 µM	Cn1c([C@@H]2CCCN(CCO)C2)nc2cc(Cl)c(Cl)cc2c1=O [Compound R-14z, (R)-6,7-dichloro-2-(1-(2-hydroxyethyl)piperidin-3-yl)-3-methylquinazolin-4(3H)-one]	
0.0001 to 0.1 µM	O=c1c2cc(Cl)c(Cl)cc2nc2n1CC[C@@H]1[C@@H]2CCCN1Cc1cnccn1 (racemic) [trans-7x, (±)-(4aR,13bS)-10,11-dichloro-4-(pyrazin-2-ylmethyl)-1,2,3,4,4a,5,6,13b-octahydro-8H-[1,6]naphthyridino[5,6-b]quinazolin-8-one]	
	CN1CCC[C@H]2c3nc4cc(Cl)c(Cl)cc4c(=O)n3CC[C@@H]21 [trans-10f-ent-2, (4aS,13bR)-10,11-dichloro-4-methyl-1,2,3,4,4a,5,6,13b-octahydro-8H-[1,6]naphthyridino[5,6-b]quinazolin-8-one]	EC50 (ATCC30215, 48 h, read-out: EC50 uM against N. fowleri): 1 to 10 µM
> 10 µM	Cn1c([C@@H]2CCCN(CC(C)(C)O)C2)nc2cc(Cl)c(Cl)cc2c1=O [Compound R-14h, (R)-6,7-dichloro-2-(1-(2-hydroxy-2-methylpropyl)piperidin-3-yl)-3-methylquinazolin-4(3H)-one]	
0.1 to 1 µM	COc1cc2nc3n(c(=O)c2cc1Cl)CC[C@@H]1[C@@H]3CCCN1CCN1CCCC1 (racemic) [trans-7nn, (±)-(4aR,13bS)-10-chloro-11-methoxy-4-(2-(pyrrolidin-1-yl)ethyl)-1,2,3,4,4a,5,6,13b-octahydro-8H-[1,6]naphthyridino[5,6-b]quinazolin-8-one]	
> 10 µM	CN(C)CCn1c([C@@H]2CCCN(CC3COC3)C2)nc2cc(Cl)c(Cl)cc2c1=O [Compound R-14l, (R)-6,7-dichloro-3-(2-(dimethylamino)ethyl)-2-(1-(oxetan-3-ylmethyl)piperidin-3-yl)quinazolin-4(3H)-one]	

Compound	EC50 [1]	also measured
COc1cc2nc3n(c(=O)c2cc1C#N)CC[C@@H]1[C@@H]3CCCN1C (racemic) [trans-7jj, (±)-(4aR,13bS)-11-methoxy-4-methyl-8-oxo-2,3,4,4a,5,6,8,13b-octahydro-1H-[1,6]naphthyridino[5,6-b]quinazoline-10-carbonitrile]	1 to 10 µM	
CN1CCC[C@@H]2c3nc4cc(Cl)ccc4c(=O)n3CC[C@H]21 (racemic) [trans-5k, (±)-(4aR,13bS)-11-chloro-4-methyl-1,2,3,4,4a,5,6,13b-octahydro-8H-[1,6]naphthyridino[5,6-b]quinazolin-8-one]	1 to 10 µM	
CN1CCC[C@@H]2c3nc4ccc(F)cc4c(=O)n3CC[C@H]21 (racemic) [trans-5f, (±)-(4aR,13bS)-10-fluoro-4-methyl-1,2,3,4,4a,5,6,13b-octahydro-8H-[1,6]naphthyridino[5,6-b]quinazolin-8-one]	> 10 µM	
CN1CCC[C@H]2c3nc4ccc(F)cc4c(=O)n3CC[C@H]21 (racemic) [cis-5f, (±)-(4aR,13bR)-10-fluoro-4-methyl-1,2,3,4,4a,5,6,13b-octahydro-8H-[1,6]naphthyridino[5,6-b]quinazolin-8-one]	> 10 µM	
